The target in one assay is T1, ALK (Homo sapiens, UniProt Q9UM73).
T1 construct: made in house; host or cells: Sf21 insect cells (baculovirus)
The assay is described as follows: Biochemical assay for inhibitors of ALK kinase activity. The text has this:
Preparation of ALK Cytoplasmic Domain for Use in Biochemical Assay
ALK cytoplasmic domain, corresponding to the residue 1060-1620 (the numbers of the amino acid residues refer to the Genbank accession number NP 004295.2) was PCR amplified from a human testis cDNA library.
For cloning purposes, the oligonucleotides included attB sites in order to obtain an attB-flanked PCR product suitable for cloning using the Gateway technology (Invitrogen). Furthermore, for purification purposes, forward primer included a PreScission cleavage site (Amersham Biosciences). The resulting PCR product was cloned in the baculovirus expression vector pVL1393 (Invitrogen) Gateway-modified. For expression and purification purpose, a GST tag was added N-terminal to the ALK cytoplasmic domain. Cloning was performed according to the protocols described in the Gateway manual (Invitrogen).
Biochemical Assay for Inhibitors of ALK Kinase Activity
ALK enzyme needs pre-activation in order to linearize reaction kinetics.
Kinase buffer was composed of 50 mM HEPES pH 7.5 containing 1 mM MnCl2, 5 mM MgCl2, 1 mM DTT, 3 microM Na3VO4, and 0.2 mg/mL BSA. 3× KB is buffer of the same composition and pH as KB, but with three times the concentration of each component.
The kinase assay was run with a final enzyme concentration of 20 nM, in the presence of 8 microM ATP, 1 nM ^33P-γ-ATP and 2 microM MBP. The MPB was purchased from Sigma-Aldrich, St. Louis, Mo., USA.

The target of a further assay is T2, IGF-1R (Homo sapiens, UniProt P08069).
T2 construct: amino acid residues 960-1367 of precursor protein; made in house; host or cells: H5 insect cells (baculovirus; virus generated in Sf21)
The assay is described as follows: Biochemical assay for inhibitors of IGF-1R kinase activity. The protocol:
Preparation of IGF-1R for Use in Biochemical Assay
Human cDNA was used as template for amplification by polymerase chain reaction (PCR) of the predicted cytoplasmic portion of IGF-1R (amino acid residues 960-1367 of precursor protein; see NCBI Entrez Protein Accession #P08069) which includes the entire kinase domain. PCR was conducted using the forward primer sequence
Biochemical Assay for Inhibitors of IGF-1R Kinase Activity
The inhibitory activity of putative kinase inhibitors and the potency of selected compounds were determined using a trans-phosphorylation assay.
A specific substrate was incubated with the kinase in appropriate buffer conditions in the presence of ATP traced with ^33P-γ-ATP (gamma phosphate-labeled, Redivue™ Code Number AH9968, 1000-3000Ci/mmole, Amersham Biosciences Piscataway, N.J., USA), optimal cofactors and test compound.
At the end of the phosphorylation reaction, more than 98% cold and radioactive ATP were captured by an excess of Dowex ion exchange resin. The resin was allowed to settle to the bottom of reaction wells by gravity. Supernatant, containing substrate peptide, was subsequently withdrawn and transferred into a counting plate, and radioactivity (corresponding to phosphate incorporated into peptide) was evaluated by β-counting.
Kinase buffer was composed of 50 mM HEPES pH 7.9 containing 3 mM MnCl2, 1 mM DTT, 3 microM Na3VO4, and 0.2 mg/mL BSA. 3× KB is buffer of the same composition and pH as KB, but with three times the concentration of each component.
Prior to starting the kinase inhibition assay, IGF-1R was pre-phosphorylated in order to linearize reaction kinetics. To achieve this, the desired total quantity of enzyme was prepared at an enzyme concentration of 360 nM in KB containing 100 microM ATP, and this preparation was incubated for 30 min at 28° C. 3× Enzyme Mix was obtained by diluting this preactivated enzyme 20-fold in 3× KB. […]

Another assay concerns the target T3, JAK2 (Homo sapiens, UniProt O60674).
T3 construct: The assay has been performed using the commercially available JAK2 kinase domain; purchased Invitrogen, Eugene, Oreg
The assay is described as follows: Biochemical assay for inhibitors of JAK2 kinase activity. The text has this: Biochemical Assay for Inhibitors of JAK2 Kinase Activity
General Principle—A specific JAK2 peptide substrate is trans-phosphorylated by JAK2 kinase in the presence of ATP traced with ^33P-γ-ATP. At the end of the phosphorylation reaction, 98% of the cold and radioactive ATP is captured by an excess of dowex ion exchange resin that eventually settles by gravity to the bottom of the reaction plate. The supernatant is subsequently withdrawn and transferred into a counting plate that is then evaluated by β-counting.
JAK2 Kinase Buffer (KB—Kinase buffer was composed of 50 mM HEPES pH 7.5 containing 10 mM MgCl2, 2.5 mM DTT, 10 microM Na3VO4, and 0.2 mg/mL BSA. 3× KB is buffer of the same composition and pH as KB, but with three times the concentration of each component.
Assay conditions—The JAK2 kinase assay was run with a final enzyme concentration of 1 nM, in the presence of 60 microM ATP, 3 nM 33P-γ-ATP and 64 microM of substrate Jaktide (Aminoacid sequence: LPLDKDYYVVREPGQ). The Jaktide was purchased from American Peptide Company (Sunnyvale, Calif.).
Compound Dilution—For IC50 determination, test compounds are received as a 1 mM solution in 100% DMSO, distributed into 96 well plates: compounds are then plated into the first column of a microtiter plate (A1 to G1), 100 μl/well. […]
Another mixing cycle is performed after all the plates are stopped, this time using normal tips: the plates are then allowed to rest for about one hour in order to maximize ATP capture. At this point, 27 μl of the supernatant are transferred into 384-Optiplates (Perkin-Elmer), with 50 μl of Microscint 40 (Perkin-Elmer); after 5 min of orbital shaking the plates are read on a Perkin-Elmer Top Count radioactivity counter.
Data Fitting—Data are analyzed by an internally customized version of the SW package “Assay Explorer” that provides sigmoidal fitting of the ten-dilutions curves for IC50 determination in the secondary assays/hit confirmation routines.

T1 sequence (Q9UM73 1060-1620): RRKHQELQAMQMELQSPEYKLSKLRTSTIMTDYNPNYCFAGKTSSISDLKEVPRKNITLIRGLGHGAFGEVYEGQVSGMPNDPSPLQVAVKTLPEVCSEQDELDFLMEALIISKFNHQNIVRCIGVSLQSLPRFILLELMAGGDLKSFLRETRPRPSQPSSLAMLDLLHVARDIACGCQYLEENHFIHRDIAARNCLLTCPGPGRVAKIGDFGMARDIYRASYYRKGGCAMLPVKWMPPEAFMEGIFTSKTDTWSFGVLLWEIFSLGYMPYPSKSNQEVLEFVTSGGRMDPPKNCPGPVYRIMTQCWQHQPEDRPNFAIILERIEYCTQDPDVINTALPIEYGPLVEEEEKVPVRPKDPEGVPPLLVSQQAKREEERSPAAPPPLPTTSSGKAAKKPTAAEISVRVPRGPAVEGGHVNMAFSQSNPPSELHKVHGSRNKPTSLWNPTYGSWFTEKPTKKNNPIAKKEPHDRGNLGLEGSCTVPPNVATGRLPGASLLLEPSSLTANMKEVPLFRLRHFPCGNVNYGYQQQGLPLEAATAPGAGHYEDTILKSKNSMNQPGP
T2 sequence (P08069 960-1367): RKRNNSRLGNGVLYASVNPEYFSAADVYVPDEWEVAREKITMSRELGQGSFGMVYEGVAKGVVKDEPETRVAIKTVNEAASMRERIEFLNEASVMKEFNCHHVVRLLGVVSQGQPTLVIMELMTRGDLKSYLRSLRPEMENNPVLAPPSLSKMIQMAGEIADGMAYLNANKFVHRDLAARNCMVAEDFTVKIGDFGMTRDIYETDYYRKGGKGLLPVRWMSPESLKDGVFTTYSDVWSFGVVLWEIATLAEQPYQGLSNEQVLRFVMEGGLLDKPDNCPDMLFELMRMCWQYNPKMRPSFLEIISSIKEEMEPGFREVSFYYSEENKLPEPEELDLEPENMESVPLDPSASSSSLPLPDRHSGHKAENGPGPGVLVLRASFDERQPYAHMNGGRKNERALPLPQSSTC
T3 sequence (O60674 849-1124 limits assumed): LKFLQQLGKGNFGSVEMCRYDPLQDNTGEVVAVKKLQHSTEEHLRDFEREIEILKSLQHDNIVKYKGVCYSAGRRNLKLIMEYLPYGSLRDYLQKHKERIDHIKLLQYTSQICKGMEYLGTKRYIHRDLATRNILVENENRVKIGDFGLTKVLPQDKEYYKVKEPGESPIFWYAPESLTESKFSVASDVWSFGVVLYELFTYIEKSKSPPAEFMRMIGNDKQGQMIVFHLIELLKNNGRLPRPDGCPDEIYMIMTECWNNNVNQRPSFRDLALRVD

The term IC50 denotes the point on the concentration scale where inhibition reaches its midpoint. For `CN1CCN(c2ccc(C(=O)Nc3n[nH]c4ccc(OCc5cc(F)cc(F)c5)cc34)c(NC3CCOCC3)c2)CC1` [Cpd. 8, N-{5-[(3,5-difluorobenzyl)oxy]-1H-indazol-3-yl}-4-(4-methylpiperazin-1-yl)-2-(tetrahydro-2H-pyran-4-ylamino)benzamide], the IC50 on ALK came out at 0.02 µM; on IGF-1R, 0.14 µM; against JAK2, 0.02 µM.

On to `CN1CCN(c2ccc(C(=O)Nc3n[nH]c4ccc(OCc5cc(F)cc(F)c5)cc34)c(NCCF)c2)CC1` [Cpd. 36, N-{5-[(3,5-difluorobenzyl)oxy]-1H-indazol-3-yl}-2-[(2-fluoroethyl)amino]-4-(4-methylpiperazin-1-yl)benzamide], for which the IC50 against ALK turned out to be 0.01 µM; at IGF-1R, 0.2 µM; against JAK2, 0.01 µM.

Take `O=C(Nc1n[nH]c2ccc(OCc3cc(F)cc(F)c3)cc12)c1ccccc1` [Ref. compound, reference compound]: the IC50 was 1.87 µM on ALK, > 10 µM against IGF-1R and 0.22 µM against JAK2.
